By Cmax is commonly meant the maximum level reached in the sampled fluid or tissue. What is called Tmax is the time from dosing to the highest level. For orientation: bioavailability means the share of a dose that reaches the circulation, judged against a reference dose that is usually intravenous. A word on the Kb: it is the affinity of an antagonist, worked out from how it opposes an agonist. In general, melting point refers to the temperature, or range, at which the solid turns liquid. One may read the AUC(0-t) as the area under the concentration-time curve up to a stated or last time point. A higher AUC(0-t) goes with high exposure. One may read the half-life as the time in which the quantity being followed falls by half. A low value points to rapid decline.

Structures are written as SMILES. Read-outs that look alike come from different tables or passages of the source.

Results on five compounds are retold here after patent US9018231B2, “Sulfone compounds as 5-HT6 receptor ligands” (Suven Life Sciences Limited, priority 2010, dated 2015).

A short description of series [1]: Rodent pharmacokinetic study. Type of series: in vivo. The note with it: Wistar/Male rat, 10 mg/kg; for AUCt / Cmax / T1/2 / Tmax / AUC(0-t) / half-life: vehicle water (Ex. 8: 50% PEG 400); for bioavailability: Oral vs Intravenous. How it is done:
Male wistar rats (230-280 grams) obtained from NIN (National Institute of Nutrition, Hyderabad, India) were used as an experimental animal. Three to five animals were housed in each cage. Animals were kept fasted over night and maintained on a 12 hours light/dark cycle. Three rats were dosed NCE (10 mg/Kg) orally and intravenously on day 0 and day 2.
At each time point blood was collected by jugular vein. Plasma was stored frozen at −20° C. until analysis. The concentrations of the NCE compound in plasma were determined using LC-MS/MS method. Schedule time points: Pre dose 0.25, 0.5, 1, 1.5, 2, 3, 4, 6, 8, 10, 12 and 24 hours after dosing (n=3). The NCE compounds were quantified in plasma by validated LC-MS/MS method using solid phase extraction technique. NCE compounds were quantified in the calibration range of 2-2000 ng/mL in plasma. Study samples were analyzed using calibration samples in the batch and quality control samples spread across the batch.
Pharmacokinetic parameters Cmax, Tmax, AUCt, T1/2 and Bioavailability were calculated by non-compartmental model using software WinNonlin version 5.1.

Series [2] has as its target T1, recombinant human 5-HT6 receptor (Homo sapiens, UniProt P50406).
T1 construct: expressed in transfected cells
As to the kind of experiment: Determination of Kb values for 5-HT6 receptor (CHO pCRE-Luc reporter assay). In kind it is cell-based. The following applies: antagonism of 10 uM serotonin, luciferase reporter, CHO cells. How it is done: A stable CHO cell line expressing recombinant human 5-HT6 receptor and pCRE-Luc reporter system was used for cell-based assay. The assay offers a non-radioactive based approach to determine binding of a compound to GPCRs. In this specific assay, the level of intracellular cyclic AMP which is modulated by activation or inhibition of the receptor is measured. The recombinant cells harbor luciferase reporter gene under the control of cAMP response element.
The above cells were grown in 96 well clear bottom white plates in Hams F12 medium containing 10% fetal bovine serum (FBS). Prior to the addition of compounds and/or agonist, cells were serum starved overnight. Increasing concentrations of test compounds were added along with 10 uM serotonin in Hams F12 medium containing 1% dialyzed FBS to the cells. The incubation was continued at 37° C. in CO2 incubator for 4 hours. Medium was removed and cells were washed with phosphate buffered saline. The cells were lysed and luciferase activity was measured in a Luminometer. Luminescence units were plotted against the compound concentrations using Graphpad software. EC50 values of the compounds were defined as the concentration required reducing the luciferase activity by 50%. The Kb values were calculated by feeding the concentration of the agonist used in the assay and its EC50 value in the same software.
Background: Reporter assays use an easily measured gene product as a stand-in for the process of interest.

A short description of series [3]: Object recognition task model. In kind it is in vivo. The note with it: rat, 10 mg/kg, p.o. How it is done: The cognition-enhancing properties of compounds of this invention were estimated using a model of animal cognition: the object recognition task model.
Male Wister rats (230-280 grams) obtained from N.I.N. (National Institute of Nutrition, Hyderabad, India) was used as experimental animals. Four animals were housed in each cage. Animals were kept on 20% food deprivation before one day and given water ad libitum throughout the experiment and maintained on a 12 hours light/dark cycle. Also the rats were habituated to individual arenas for 1 hour in the absence of any objects.
One group of 12 rats received vehicle (1 mL/Kg) orally and another set of animals received compound of the formula (I) either orally or i.p., before one hour of the familiar (T1) and choice trial (T2).
The experiment was carried out in a 50×50×50 cm open field made up of acrylic. In the familiarization phase, (T1), the rats were placed individually in the open field for 3 minutes, in which two identical objects (plastic bottles, 12.5 cm height×5.5 cm diameter) covered in yellow masking tape alone (a1 and a2) were positioned in two adjacent corners, 10 cm. from the walls. After 24 hours of the (T1) trial for long-term memory test, the same rats were placed in the same arena as they were placed in T1 trial. Choice phase (T2) rats were allowed to explore the open field for 3 minutes in presence of one familiar object (a3) and one novel object (b) (Amber color glass bottle, 12 cm high and 5 cm in diameter). Familiar objects presented similar textures, colors and sizes. During the T1 and T2 trial, explorations of each object (defined as sniffing, licking, chewing or having moving vibrissae whilst directing the nose towards the object at a distance of less than 1 cm) were recorded separately by stopwatch. Sitting on an object was not regarded as exploratory activity, however, it was rarely observed. T1 is the total time spent exploring the familiar objects (a1+a2). T2 is the total time spent exploring the familiar object and novel object (a3+b).
The object recognition test was performed as described by Ennaceur, A., Delacour, J., 1988, A new one-trial test for neurobiological studies of memory in rats—Behavioural data, Behav. Brain Res., 31, 47-59.

Series [4] in a line: Water maze (scopolamine induced reversal). Type of series: in vivo. The following applies: rat, p.o. How it is done:
The water maze apparatus consisted of a circular pool (1.8 m diameter, 0.6 m high) constructed in black Perspex (TSE systems, Germany) filled with water (24±2° C.) and positioned underneath a wide-angled video camera to track animal. The 10 cm^2 perspex platform, lying 1 cm below the water surface, was placed in the centre of one of the four imaginary quadrants, which remained constant for all rats. The black Perspex used in the construction of the maze and platform offered no intramaze cues to guide escape behavior. By contrast, the training room offered several strong extramaze visual cues to aid the formation of the spatial map necessary for escape learning. An automated tracking system, [Videomot 2 (5.51), TSE systems, Germany] was employed. This program analyzes video images acquired via a digital camera and an image acquisition boards that determined path length, swim speed and the number of entries and duration of swim time spent in each quadrant of the water maze.

For series [5] the following is noted: in vivo; cited from earlier work.
Setting [6] is: plasma, Intravenous, read-out: Cmax.
The mark [7] stands for this setting: plasma, Intravenous, read-out: Tmax.
[8] abbreviates: plasma, read-out: Bioavailability.

T1 sequence (P50406 whole entry): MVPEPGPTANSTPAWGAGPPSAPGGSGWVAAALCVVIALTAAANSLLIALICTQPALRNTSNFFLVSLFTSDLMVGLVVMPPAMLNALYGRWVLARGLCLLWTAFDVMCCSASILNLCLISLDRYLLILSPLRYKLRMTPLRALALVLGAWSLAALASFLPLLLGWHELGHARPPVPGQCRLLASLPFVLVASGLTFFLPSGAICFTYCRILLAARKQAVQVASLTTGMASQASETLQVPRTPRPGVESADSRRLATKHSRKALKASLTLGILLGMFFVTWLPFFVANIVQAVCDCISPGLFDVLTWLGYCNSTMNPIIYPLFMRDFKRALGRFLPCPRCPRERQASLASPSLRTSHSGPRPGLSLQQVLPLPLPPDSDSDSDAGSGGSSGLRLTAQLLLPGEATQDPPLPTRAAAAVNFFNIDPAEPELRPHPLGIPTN

In the case of `Cc1ccc(S(=O)(=O)c2c[nH]c3cc(Cl)ccc23)cc1NC1CCN(C)CC1` [Example 1, N-[2-methyl-5-(6-chloro-1H-indole-3-ylsulfonyl)phenyl]-N-(1-methypiperidin-4-yl)amine], in series [1] (Intravenous), the AUCt was 2484 ± 853 ng·h/mL, the Cmax amounted to 1644 ± 582 ng/mL, the T1/2 is 5.23 ± 2.08 h and the Tmax is 0.14 ± 0.10 h. This compound also registered a bioavailability in series [1] of 31 ± 12%. Further, in series [1] (Oral), the AUCt was 750 ± 363 ng·h/mL, the Cmax was 128 ± 13 ng/mL, the T1/2 turned out to be 6.38 ± 1.38 h and the Tmax is 3.42 ± 2.74 h. Moreover, in series [2], the Kb was 1.55 nM. For the same compound, in series [3], the “Exploration time mean ± S.E.M, Familiar object” value is 10.10 ± 1.84 s; the “Exploration time mean ± S.E.M, Novel object” value turned out to be 13.22 ± 2.00 s; the Inference entry is listed as “Active”. In addition, the “Scopolamine Induced Reversal” value in series [4] was “≦10 mg/kg, p.o”.

`CN1CCC(Nc2cc(S(=O)(=O)c3c[nH]c4cc(Cl)ccc34)ccc2Cl)CC1.Cl` [Example 8, N-(1-Methylpiperidin-4-yl)-N-[2-chloro-5-(6-chloro-1H-indole-3-ylsulfonyl)phenyl]amine hydrochloride] displayed a melting point of 189.7 to 194.2 °C. In series [1] (plasma, Intravenous), this compound gave an AUC(0-t) of 6950 ± 3450 ng·h/mL and a half-life of 5.64 ± 0.95 h. Moreover, in series [1] (setting [6]), the Cmax turned out to be 1340 ± 426 ng/mL. Also, in series [1] (setting [7]), the Tmax is 0.08 h. The bioavailability in series [1] (setting [8]) came out at 58 ± 12%. In addition, in series [1] (plasma, Oral), the AUC(0-t) worked out at 3810 ± 1340 ng·h/mL and the half-life was 9.06 ± 2.13 h. Also, the Cmax in series [1] (plasma, Oral, read-out: Cmax) amounted to 327 ± 99 ng/mL. In addition, in series [1] (plasma, Oral, read-out: Tmax), the Tmax turned out to be 3 h. For the same compound, the Kb in series [2] came to 5.7 nM.

Regarding `COc1ccc(S(=O)(=O)c2c[nH]c3cc(Cl)ccc23)cc1NC1CCNCC1` [Example 16, N-(Piperidin-4-yl)-N-[2-methoxy-5-(6-chloro-1H-Indole-3-ylsulfonyl)phenyl] amine], the melting point lay within 208 to 208.9 °C. Also, the Kb in series [2] was 0.22 nM. Besides, in series [3], the “Exploration time mean ± S.E.M, Familiar object” value is 8.10 ± 1.78 s; the “Exploration time mean ± S.E.M, Novel object” value stood at 12.00 ± 1.84 s; the Inference entry was “Active”. For the same compound, in series [4], the “Scopolamine Induced Reversal” value was “≦10 mg/kg, p.o”.

Regarding `COc1ccc(S(=O)(=O)c2c[nH]c3cc(Cl)ccc23)cc1NC1CCN(C)CC1` [Example 17, N-(1-Methylpiperidin-4-yl)-N-[2-methoxy-5-(6-chloro-1H-Indole-3-ylsulfonyl)phenyl] amine], the melting point was 88.6 to 91.6 °C. Also, in series [1] (plasma, Intravenous), the AUC(0-t) is 5730 ± 2620 ng·h/mL and the half-life is 3.86 ± 0.09 h. For the same compound, the Cmax in series [1] (setting [6]) is 4220 ± 2250 ng/mL. Besides, the Tmax in series [1] (setting [7]) is 0.08 h. The bioavailability in series [1] (setting [8]) worked out at 24 ± 2%. In series [1] (plasma, Oral), this compound had an AUC(0-t) of 1430 ± 734 ng·h/mL and a half-life of 1.86 ± 0.09 h. Further, the Cmax in series [1] (plasma, Oral, read-out: Cmax) stood at 379 ± 160 ng/mL. In addition, the Tmax in series [1] (plasma, Oral, read-out: Tmax) is 3 h. Also, in series [2], the Kb amounted to 0.82 nM.

As for `COc1ccc(NS(=O)(=O)c2sc3ccc(Cl)cc3c2C)cc1N1CCNCC1` [SB-271046, 5-Chloro-N-(4-methoxy-3-piperazin-1-ylphenyl)-3-methyl-2-benzothiophenesulfonamide], the “activity in animal tests related to positive or negative symptoms of schizophrenia” value in series [5] is “inactive”.
